According to the supplement of paper PMC10627819:

How the values were obtained:
Assay in all cases: Bliss interaction score (quartile over a dose matrix) (fitness difference); higher = more antagonism (negative = synergy)
[1] = test system: S. aureus Newman
In short: (§1)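 The Bliss score is observed fitness minus expected fitness, where the expected value is the product of single-drug fitness values inferred from combination data. Fitness is OD595 at entry into stationary phase normalised to the plate's robust no-drug mean and capped at 1. Scores are reported as quartiles spanning technical, biological and donor/recipient replicates.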

[2] = test system: S. aureus DSM 20231
In short: as §1

[3] = test system: S. pneumoniae D39V
In short: as §1

[4] = test system: B. subtilis 168
In short: as §1
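Note: first quartile when negative (synergy) and third quartile when positive (antagonism).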

CC1=C(C(=O)O)N2C(=O)[C@@H](NC(=O)[C@H](N)c3ccccc3)[C@H]2SC1 [Cephalexin] + CC[C@H]1OC(=O)[C@H](C)[C@@H](O[C@H]2C[C@@](C)(OC)[C@@H](O)[C@H](C)O2)[C@H](C)[C@@H](O[C@@H]2O[C@H](C)C[C@H](N(C)C)[C@H]2O)[C@](C)(OC)C[C@@H](C)C(=O)[C@H](C)[C@@H](O)[C@]1(C)O [Clarithromycin]
Bliss interaction score [1]: 0.0874
Bliss interaction score [2]: 0.0663
Bliss interaction score [3]: 0.0361
Bliss interaction score [4]: 0.0576

O=C(O)[C@H]1/C(=C/CO)O[C@@H]2CC(=O)N21 [Clavulanic] + Cc1cc(NS(=O)(=O)c2ccc(N)cc2)no1 [Sulfamethoxazol]
Bliss interaction score [1]: -0.0365
Bliss interaction score [2]: 0.0966
Bliss interaction score [3]: 0.0674
Bliss interaction score [4]: 0.0509

CC1=C(C(=O)O)N2C(=O)[C@@H](NC(=O)[C@H](N)c3ccccc3)[C@H]2SC1 [Cephalexin] + O=C(N[C@H](CO)[C@H](O)c1ccc([N+](=O)[O-])cc1)C(Cl)Cl [Chloramphenicol]
Bliss interaction score [1]: 0.0789
Bliss interaction score [2]: 0.0832
Bliss interaction score [3]: 0.113
Bliss interaction score [4]: -0.069

O=C(O)[C@H]1/C(=C/CO)O[C@@H]2CC(=O)N21 [Clavulanic] + CN(C)c1cc(NC(=O)CNC(C)(C)C)c(O)c2c1C[C@H]1C[C@H]3[C@H](N(C)C)C(O)=C(C(N)=O)C(=O)[C@@]3(O)C(O)=C1C2=O [Tigecycline]
Bliss interaction score [1]: -0.0659
Bliss interaction score [2]: 0.0703
Bliss interaction score [3]: 0.0386
Bliss interaction score [4]: 0.0342

CC[C@H]1OC(=O)[C@H](C)[C@@H](O[C@H]2C[C@@](C)(OC)[C@@H](O)[C@H](C)O2)[C@H](C)[C@@H](O[C@@H]2O[C@H](C)C[C@H](N(C)C)[C@H]2O)[C@](C)(O)C[C@@H](C)CN(C)[C@H](C)[C@@H](O)[C@]1(C)O [Azithromycin] + CC[C@H]1OC(=O)[C@H](C)[C@@H](O[C@H]2C[C@@](C)(OC)[C@@H](O)[C@H](C)O2)[C@H](C)[C@@H](O[C@@H]2O[C@H](C)C[C@H](N(C)C)[C@H]2O)[C@](C)(O)C[C@@H](C)C(=O)[C@H](C)[C@@H](O)[C@]1(C)O [Erythromycin]
Bliss interaction score [1]: -0.0668
Bliss interaction score [2]: -0.056
Bliss interaction score [3]: 0.0539
Bliss interaction score [4]: -0.0754

Clc1ccc(COC(Cn2ccnc2)c2ccc(Cl)cc2Cl)c(Cl)c1 (stereo not given) [Miconazole] + Oc1cc(Cl)ccc1Oc1ccc(Cl)cc1Cl [Triclosan]
Bliss interaction score [1]: 0.0222
Bliss interaction score [2]: 0.0712
Bliss interaction score [3]: 0.0535
Bliss interaction score [4]: 0.0625

O=C(O)[C@H]1/C(=C/CO)O[C@@H]2CC(=O)N21 [Clavulanic] + COc1c(N2C[C@@H]3CCCN[C@@H]3C2)c(F)cc2c(=O)c(C(=O)O)cn(C3CC3)c12 [Moxifloxacin]
Bliss interaction score [1]: 0.218
Bliss interaction score [2]: -0.0739
Bliss interaction score [3]: 0.062
Bliss interaction score [4]: -0.0241

O=C(O)[C@H]1/C(=C/CO)O[C@@H]2CC(=O)N21 [Clavulanic] + CN(C)C(=O)C(CCN1CCC(O)(c2ccc(Cl)cc2)CC1)(c1ccccc1)c1ccccc1 [Loperamide]
Bliss interaction score [1]: 0.209
Bliss interaction score [2]: -0.361
Bliss interaction score [3]: 0.0637
Bliss interaction score [4]: 0.389

CNC(C)C1CCC(N)C(OC2C(N)CC(N)C(OC3OCC(C)(O)C(NC)C3O)C2O)O1 (stereo not given) [Gentamicin] + CO[C@@]12[C@H](COC(N)=O)C3=C(C(=O)C(C)=C(N)C3=O)N1C[C@@H]1N[C@@H]12 [MitomycinC]
Bliss interaction score ([1]; main component drawn): 0.0445
Bliss interaction score ([2]; main component drawn): -0.0573
Bliss interaction score ([3]; main component drawn): 0.0575
Bliss interaction score ([4]; main component drawn): -0.0792

Cc1onc(-c2ccccc2)c1C(=O)N[C@@H]1C(=O)N2[C@@H]1SC(C)(C)[C@@H]2C(=O)O [Oxacillin] + Oc1cc(Cl)ccc1Oc1ccc(Cl)cc1Cl [Triclosan]
Bliss interaction score [1]: 0.0273
Bliss interaction score [2]: 0.0454
Bliss interaction score [3]: 0.0852
Bliss interaction score [4]: 0.025

CC[C@H]1OC(=O)[C@H](C)[C@@H](O[C@H]2C[C@@](C)(OC)[C@@H](O)[C@H](C)O2)[C@H](C)[C@@H](O[C@@H]2O[C@H](C)C[C@H](N(C)C)[C@H]2O)[C@](C)(O)C[C@@H](C)CN(C)[C@H](C)[C@@H](O)[C@]1(C)O [Azithromycin] + O=C1CN(/N=C/c2ccc([N+](=O)[O-])o2)C(=O)N1 [Nitrofurantoin]
Bliss interaction score [1]: -0.0835
Bliss interaction score [2]: -0.0881
Bliss interaction score [3]: -0.215
Bliss interaction score [4]: -0.117

CC1=C(C(=O)O)N2C(=O)[C@@H](NC(=O)[C@H](N)c3ccccc3)[C@H]2SC1 [Cephalexin] + C[C@@H](O)[C@H]1C(=O)N2C(C(=O)O)=C(SCCNC=N)C[C@H]12 [Imipenem]
Bliss interaction score [1]: -0.0579
Bliss interaction score [2]: 0.0677
Bliss interaction score [3]: -0.237
Bliss interaction score [4]: -0.104

Clc1ccc(COC(Cn2ccnc2)c2ccc(Cl)cc2Cl)c(Cl)c1 (stereo not given) [Miconazole] + CO[C@@]12[C@H](COC(N)=O)C3=C(C(=O)C(C)=C(N)C3=O)N1C[C@@H]1N[C@@H]12 [MitomycinC]
Bliss interaction score [1]: -0.188
Bliss interaction score [2]: 0.0383
Bliss interaction score [3]: 0.0662
Bliss interaction score [4]: -0.066

Oc1cc(Cl)ccc1Oc1ccc(Cl)cc1Cl [Triclosan] + CN[C@H](CC(C)C)C(=O)N[C@H]1C(=O)N[C@@H](CC(N)=O)C(=O)N[C@H]2C(=O)N[C@H]3C(=O)N[C@H](C(=O)N[C@H](C(=O)O)c4cc(O)cc(O)c4-c4cc3ccc4O)[C@H](O)c3ccc(c(Cl)c3)Oc3cc2cc(c3O[C@@H]2O[C@H](CO)[C@@H](O)[C@H](O)[C@H]2O[C@H]2C[C@](C)(N)[C@H](O)[C@H](C)O2)Oc2ccc(cc2Cl)[C@H]1O [Vancomycin]
Bliss interaction score [1]: 0.0453
Bliss interaction score [2]: 0.0768
Bliss interaction score [3]: 0.0833
Bliss interaction score [4]: 0.0377

CC[C@H]1OC(=O)[C@H](C)[C@@H](O[C@H]2C[C@@](C)(OC)[C@@H](O)[C@H](C)O2)[C@H](C)[C@@H](O[C@@H]2O[C@H](C)C[C@H](N(C)C)[C@H]2O)[C@](C)(O)C[C@@H](C)CN(C)[C@H](C)[C@@H](O)[C@]1(C)O [Azithromycin] + CC[C@H]1OC(=O)[C@H](C)C(=O)[C@H](C)[C@@H](O[C@@H]2O[C@H](C)C[C@H](N(C)C)[C@H]2O)[C@](C)(OC)C[C@@H](C)C(=O)[C@H](C)[C@H]2N(CCCCn3cnc(-c4cccnc4)c3)C(=O)O[C@]12C [Telithromycin]
Bliss interaction score [1]: -0.0389
Bliss interaction score [2]: -0.0311
Bliss interaction score [3]: 0.0272
Bliss interaction score [4]: 0.0342
